Entries after “also recorded” stand apart in the source; their conditions may differ. Where two headings read alike, the source gives them in different places. A value given as a limit tells only on which side of the number the result lay.

The subject of data set [1] is prostate cancer cell lines (e.g. DU145/TXR). Put plainly: Cell based assay, cell viability (CellTiter-Glo), prostate cancer cell lines. The conditions noted are these: Homo sapiens, 72 hours treatment, final concentration 0 to 2 μM. The gist of the method:
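Cell lines seeded, cultured 24 hours, then exposed to compound at final 0 to 2 μM. After a further 72 hours, viability measured by ATP-detection luminescence (CellTiter-Glo).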
On the technique in general: Cellular ATP, detected with luciferase, serves as a proxy for viable cell number.

The nature of data set [2]: IV and IP single toxicity test in mice. The data set is classed as in vivo. The conditions noted are these: for Percentage (dead subjects), single toxicity evaluation: Mouse.
The test system of the next data set is zebrafish. Kind of data set: Cardiotoxicity experiment using zebrafish (heart rate, lethality). Format: in vivo. The settings on record: 5 uM, n = 10.
Data set [3] is described as follows: Cell based assay, cytotoxicity in RT4 papilloma cells (selectivity). Also noted: species or system human. The settings on record: human; RT4 cells (benign), 72 hours.
Data set [4] relates to MBT-2: Mouse bladder transitional cell carcinoma. Put plainly: Cell based assay, cytotoxicity in MBT-2 cells. The conditions noted are these: 72 hours. On the procedure:
(§1) Commercially available bladder cancer, prostate cancer, lung cancer, breast cancer, blood cancer, pancreatic cancer, colorectal cancer, brain cancer, neuroblastoma, melanoma, liver cancer, cervical carcinoma, ovarian cancer, renal cancer, and papilloma cell lines were each treated with trypsin-EDTA and cultured, followed by being seeded in each well of a 96 well plate. After 24 hours of treatment at constant temperature, the respective cells were treated with the candidate compound so that a final concentration became 0 to 2 μM. The treated cells were additionally cultured for 72 hours, and cell viability was measured by using an ATP detection method (CellTiter-Glo® Luminescent Cell Viability Assay, Promega).

In data set [5] the test system is KU-19-19: Bladder carcinoma. Put plainly: Cell based assay, cytotoxicity in KU19-19 cells. The settings on record: Homo sapiens, 72 hours. On the procedure: as §1
In data set [6] the test system is UM-UC-3: human urinary bladder transitional cell carcinoma. Put plainly: Cell based assay, cytotoxicity in UM-UC-3 cells. The settings on record: UMUC3, 72 hours. The method, then: as §1
Where [7] appears, read: CWR22 cells, read-out: IC50, prostate cancer cell line CWR22.
[8] abbreviates: DU-145, DU145/TXR cells, read-out: IC50, prostate cancer cell line DU145/TXR.
Setting [9] is: DU-145, DU145 cells, read-out: IC50, prostate cancer cell line DU145.
The mark [10] stands for this setting: LNcap cells, read-out: IC50, prostate cancer cell line LNcap.
[11] abbreviates: PC-3 cells, read-out: IC50, prostate cancer cell line PC-3.
[12] abbreviates: IV and IP single toxicity tests at 40 mpk, 40 mg/kg.

Take `CC(=O)c1c([S+]([O-])Cc2ccccc2)nc2c(Br)ccc(Cl)c2c1O` (stereo not drawn) [Compound 4]: the IC50 in data set [1] (setting [7]) is 1670 nM; in data set [1] (setting [8]), 1190 nM; in data set [1] (setting [9]), 1410 nM; in data set [1] (setting [10]), greater than 2000 nM; in data set [1] (setting [11]), 1520 nM. Further, the Dead subjects entry in data set [2] (setting [12]) is reported as “No dead subjects were observed”. For the same molecule, the “General symptoms (feed intake, drinking water intake)” value in data set [2] (setting [12]) was “Feeding and drinking water intakes were good, and no other abnormal symptoms were observed”. Moreover, in data set [2] (setting [12]), the Weight changes entry is listed as “no significant weight changes; also recorded: a weight gain was observed, but weight gain was slightly reduced in some subjects”. Moreover, the “Percentage (dead subjects), single toxicity evaluation” value in data set [2] (Female, IP 40 mg/kg) is reported as 0 (0/2); in data set [2] (Female, IV 40 mg/kg), 0 (0/2); in data set [2] (Male, IP 40 mg/kg), 0 (0/2); in data set [2] (Male, IV 40 mg/kg), 0 (0/2). Further, the “Changes (%) in heart rate” value in the data set with zebrafish (mean) stood at 88.5%. Besides, the Lethality in the data set on zebrafish was 1/10.

Regarding `CC(=O)c1c([S+]([O-])Cc2ccc(-n3cccn3)nc2)[nH]c2c(Br)ccc(Cl)c2c1=O` (stereo not drawn) [Compound 99, 2-(((6-(1H-pyrazol-1-yl)pyridin-3-yl)methyl)sulfinyl)-3-acetyl-8-bromo-5-chloroquinolin-4(1H)-one], the IC50 is 1240 nM in data set [1] (setting [7]); 1060 nM in data set [1] (setting [8]); 970 nM in data set [1] (setting [9]); greater than 2000 nM in data set [1] (setting [10]); 1510 nM in data set [1] (setting [11]); 0.47 µM in data set [4]. The IC50 turned out to be 1.12 µM in data set [5] and 0.77 µM in data set [6]. The IC50 at 72 h in data set [3] is greater than 10 µM.

As to `O=C(c1c([S+]([O-])Cc2ccc(SC(F)(F)F)cc2)[nH]c2c(Br)ccc(Cl)c2c1=O)C1CC1` (stereo not drawn) [Compound 101, 8-bromo-5-chloro-3-(cyclopropanecarbonyl)-2-((4-((trifluoromethyl)thio)benzyl)sulfinyl)quinolin-4(1H)-one], the IC50 was greater than 2000 nM in data set [1] (setting [7]); 1420 nM in data set [1] (setting [8]); 1340 nM in data set [1] (setting [9]); greater than 2000 nM in data set [1] (setting [10]); greater than 2000 nM in data set [1] (setting [11]).

Regarding `CC(=O)c1c([S+]([O-])Cc2ccc(C(F)(F)F)nc2C)[nH]c2c(Br)ccc(Cl)c2c1=O` (stereo not drawn) [Compound 102, 3-acetyl-8-bromo-5-chloro-2-(((2-methyl-6-(trifluoromethyl)pyridin-3-yl)methyl)sulfinyl)quinolin-4(1H)-one], the IC50 is 1490 nM in data set [1] (setting [7]); 1120 nM in data set [1] (setting [8]); 1650 nM in data set [1] (setting [9]); greater than 2000 nM in data set [1] (setting [10]); 1830 nM in data set [1] (setting [11]).

`CC(=O)c1c([S+]([O-])Cc2ccc(NS(C)(=O)=O)cc2)[nH]c2c(Br)ccc(Cl)c2c1=O` (stereo not drawn) [Compound 103, N-(4-(((3-acetyl-8-bromo-5-chloro-4-oxo-1,4-dihydroquinolin-2-yl)sulfinyl)methyl)phenyl)methane-sulfonamide]: the IC50 in data set [1] (setting [7]), in data set [1] (setting [8]), in data set [1] (setting [9]) and in data set [1] (setting [10]) was greater than 2000 nM in each case.

Turning to `CC(=O)c1c([S+]([O-])Cc2ccc(Cl)nc2)[nH]c2c(Br)ccc(Cl)c2c1=O` (stereo not drawn) [Compound 104, 3-acetyl-8-bromo-5-chloro-2-(((6-chloropyridin-3-yl)methyl)sulfinyl)quinolin-4(1H)-one], the IC50 is 1550 nM in data set [1] (setting [7]); 1230 nM in data set [1] (setting [8]); 1640 nM in data set [1] (setting [9]); greater than 2000 nM in data set [1] (setting [10]); greater than 2000 nM in data set [1] (setting [11]).

Take `COCCNc1ccc(C[S+]([O-])c2[nH]c3c(Br)ccc(Cl)c3c(=O)c2C(C)=O)cn1` (stereo not drawn) [Compound 105, 3-acetyl-8-bromo-5-chloro-2-(((6-((2-methoxyethyl)amino)pyridin-3-yl)methyl)sulfinyl)quinolin-4(1H)-one]: the IC50 in data set [1] (setting [7]), in data set [1] (setting [8]), in data set [1] (setting [9]) and in data set [1] (setting [10]) was greater than 2000 nM each time.

For `CC(=O)c1c([S+]([O-])Cc2nonc2C)[nH]c2c(Br)ccc(Cl)c2c1=O` (stereo not drawn) [Compound 106, 3-acetyl-8-bromo-5-chloro-2-(((4-methyl-1,2,5-oxadiazol-3-yl)methyl)sulfinyl)quinolin-4(1H)-one], the IC50 in data set [1] (setting [7]), in data set [1] (setting [8]), in data set [1] (setting [9]) and in data set [1] (setting [10]) was greater than 2000 nM each time.

As for `CC(=O)c1c([S+]([O-])Cc2cnc3[nH]ccc3c2)[nH]c2c(Br)ccc(Cl)c2c1=O` (stereo not drawn) [Compound 107, 2-(((1H-pyrrolo[2,3-b]pyridin-5-yl)methyl)sulfinyl)-3-acetyl-8-bromo-5-chloroquinolin-4(1H)-one], the IC50 in data set [1] (setting [7]), in data set [1] (setting [8]), in data set [1] (setting [9]) and in data set [1] (setting [10]) was greater than 2000 nM throughout.

(Values after patent US11464770B2, “Anticancer pharmaceutical composition” (NATIONAL CANCER CENTER, priority 2016, dated 2022).)
